Laboratory results as given in patent US20170121322A1, “BET-PROTEIN INHIBITING 3,4-DIHYDROPYRIDO[2,3-B]PYRAZINONES WITH META-SUBSTITUTED AROMATIC AMINO- OR ETHER GROUPS” (Bayer Pharma Aktiengesellschaft, priority 2014, published 2017).

What was measured:
[1] = target: T1, BRD4 bromo domain 1 [BRD4(1)] (Homo sapiens, UniProt O60885); test: BRD4(1)/acetylated peptide H4 TR-FRET binding assay; settings: His6-BRD4(1) (aa 67-152) vs acetylated histone H4 peptide
T1 construct: N-terminally His6-tagged BRD4(1) (amino acids 67-152); made in house; host or cells: E. coli
Excerpt: To assess the BRD4(1) binding strength of the substances described in this application, the ability thereof to inhibit the interaction between BRD4(1) and acetylated histone H4 in a dose-dependent manner was quantified.
For this purpose, a time-resolved fluorescence resonance energy transfer (TR-FRET) assay was used, which measures the binding between N-terminally His6-tagged BRD4(1) (amino acids 67-152) and a synthetic acetylated histone H4 (Ac-H4) peptide with sequence GRGK(Ac)GGK(Ac)GLGK(Ac)GGAK(Ac)RHGSGSK-biotin. The recombinant BRD4(1) protein produced in-house according to Filippakopoulos et al., Cell, 2012, 149:214-231 was expressed in E. coli and purified by means of (Ni-NTA) affinity and (Sephadex G-75) size exclusion chromatography. The Ac-H4 peptide can be purchased, for example, from Biosyntan (Berlin, Germany).
In the assay, typically 11 different concentrations of each substance (0.1 nM, 0.33 nM, 1.1 nM, 3.8 nM, 13 nM, 44 nM, 0.15 μM, 0.51 μM, 1.7 μM, 5.9 μM and 20 μM) were analysed as duplicates on the same microtitre plate. For this purpose, 100-fold concentrated solutions in DMSO were prepared by serial dilutions (1:3.4) of a 2 mM stock solution into a clear, 384-well microtitre plate (Greiner Bio-One, Frickenhausen, Germany). From this, 50 nl were transferred into a black test plate (Greiner Bio-One, Frickenhausen, Germany). The test was started by the addition of 2 μl of a 2.5-fold concentrated BRD4(1) solution (final concentration typically 10 nM in the 5 μl of reaction volume) in aqueous assay buffer [50 mM HEPES pH 7.5, 50 mM sodium chloride (NaCl), 0.25 mM CHAPS and 0.05% serum albumin (BSA)] to the substances in the test plate. This was followed by a 10-minute incubation step at 22° C. for the pre-equilibration of putative complexes between BRD4(1) and the substances. Subsequently, 3 μl of a solution of 1.67 times the concentration (in assay buffer) consisting of Ac-H4 peptide (83.5 nM) and TR-FRET detection reagents [16.7 nM anti-6His-XL665 and 3.34 nM streptavidin cryptate (both from Cisbio Bioassays, Codolet, France), and 668 mM potassium fluoride (KF)] were added.
The mixture was then incubated in the dark at 22° C. for one hour and then at 4° C. for at least 3 hours and for no longer than overnight. The formation of BRD4(1)/Ac-H4 complexes was determined by the measurement of the resonance energy transfer from the streptavidin-Eu cryptate to the anti-6His-XL665 antibody present in the reaction. For this purpose, the fluorescence emission was measured at 620 nm and 665 nm after excitation at 330-350 nm in a TR-FRET measuring instrument, for example a Rubystar or Pherastar (both from BMG Lab Technologies, Offenburg, Germany) or a Viewlux (Perkin-Elmer). The ratio of the emissions at 665 nm and at 622 nm was taken as an indicator of the amount of BRD4(1)/Ac-H4 complexes formed.
The data (ratios) obtained were normalized, with 0% inhibition corresponding to the mean from the measurements for a set of controls (typically 32 data points) in which all the reagents were present. In these, in place of test substances, 50 nl of DMSO (100%) were used. Inhibition of 100% corresponded to the mean from the measurements for a set of controls (typically 32 data points) in which all the reagents except BRD4(1) were present. The IC50 was determined by regression analysis based on a 4-parameter equation (minimum, maximum, IC50, Hill; Y=Max+(Min−Max)/(1+(X/IC50)Hill).

MOLP-8 cells = test: Cell proliferation assay MOLP-8 (alamarBlue); assay type: cell-based; settings: Homo sapiens, multiple myeloma cells, 120 hours
Description: (§1) In accordance with the invention, the ability of the substances to inhibit cell proliferation was determined. Cell viability was determined by means of the alamarBlue® reagent (Invitrogen) in a Victor X3 Multilabel Reader (Perkin Elmer). The excitation wavelength was 530 nm and the emission wavelength […].
The MOLP-8 cells (DSMZ, ACC 569) were seeded at a concentration of 4000 cells/well in 100 μl of growth medium (RPMI1640, 20% FCS) on 96-well microtitre plates.
(§2) After overnight incubation at 37° C., the fluorescence values (CI values) were determined. Then the plates were treated with various substance dilutions (1E-5 M, 3E-6 M, 1E-6 M, 3E-7 M, 1E-7 M, 3E-8 M, 1E-8 M) and incubated at 37° C. over 96 hours (MOLM-13, B16F10, CHL-1 cells) or 120 hours (MOLP-8 cells). Subsequently, the fluorescence values were determined (CO values). For the data analysis, the CI values were subtracted from the CO values and the results were compared between cells which had been treated with various dilutions of the substance or only with buffer solution. The IC50 values (substance concentration needed for 50% inhibition of cell proliferation) were calculated therefrom.
(§3) The substances were tested in the cell lines in Table 2, which represent the indications specified by way of example: […]

CHL-1 cells = test: Cell proliferation assay CHL-1 (alamarBlue); assay type: cell-based; settings: Homo sapiens, melanoma (BRAF wild-type) cells, 96 hours
Description: as §1
The CHL-1 cells (ATCC, CRL-9446) were seeded at a concentration of 1000 cells/well in 100 μl of growth medium (DMEM with glutamine, 10% FCS) on 96-well microtitre plates.
as §2, §3

Row | IC50 [1] [nM] | Compound | IC50 (MOLP-8 cells) [nM] | IC50 (CHL-1 cells) [nM]
1 | 303 | CC1C(=O)N(C)c2ccc(Nc3cccc(S(C)(=O)=O)c3)nc2N1c1ccccc1 (stereo not drawn) [Example 17, 1,3-Dimethyl-6-{[3-(methylsulphonyl)phenyl]amino}-4-phenyl-3,4-dihydropyrido[2,3-b]pyrazin-2(1H)-one] | 1060 | 800
2 | 79 | COc1ccc(S(C)(=O)=O)cc1Nc1ccc2c(n1)N(C1CCOCC1)[C@H](C)C(=O)N2C [Example 3, (3R)-6-{[2-Methoxy-5-(methylsulphonyl)phenyl]amino}-1,3-dimethyl-4-(tetrahydro-2H-pyran-4-yl)-3,4-dihydropyrido[2,3-b]pyrazin-2(1H)-one] | 103 | 127
3 | 173 | COc1ccc(S(C)(=O)=O)cc1Nc1ccc2c(n1)N(C(C)C)[C@H](C)C(=O)N2C [Example 14, (3R)-4-Isopropyl-6-{[2-methoxy-5-(methylsulphonyl)phenyl]amino}-1,3-dimethyl-3,4-dihydropyrido[2,3-b]pyrazin-2(1H)-one] | 174 | 118
4 | 83 | Cc1ccc(S(C)(=O)=O)cc1Nc1ccc2c(n1)N(C1CCOCC1)[C@H](C)C(=O)N2C [Example 2, (3R)-1,3-Dimethyl-6-{[2-methyl-5-(methylsulphonyl)phenyl]amino}-4-(tetrahydro-2H-pyran-4-yl)-3,4-dihydropyrido[2,3-b]pyrazin-2(1H)-one] | 236 | 189
5 | 321 | C[C@@H]1C(=O)N(C)c2ccc(Nc3cccc(C(F)(F)F)c3)nc2N1C1CCOCC1 [Example 43, (3R)-1,3-Dimethyl-4-(tetrahydro-2H-pyran-4-yl)-6-{[3-(trifluoromethyl)phenyl]amino}-3,4-dihydropyrido[2,3-b]pyrazin-2(1H)-one] | 911 | 707
6 | 25 | COc1ccc(S(=O)(=O)C(C)C)cc1Nc1ccc2c(n1)N(C1CCOCC1)[C@H](C)C(=O)N2C [Example 9, (3R)-6-{[5-(Isopropylsulphonyl)-2-methoxyphenyl]amino}-1,3-dimethyl-4-(tetrahydro-2H-pyran-4-yl)-3,4-dihydropyrido[2,3-b]pyrazin-2(1H)-one] | 38 | 19
7 | 3630 | CCOC(=O)N=S(C)(=O)c1cccc(Nc2ccc3c(n2)N(C2CCOCC2)[C@H](C)C(=O)N3C)c1 (mixture of isomers) [Example 10, Ethyl [(3-{[(3R)-1,3-dimethyl-2-oxo-4-(tetrahydro-2H-pyran-4-yl)-1,2,3,4-tetrahydropyrido[2,3-b]pyrazin-6-yl]amino}phenyl)(methyl)oxido-λ^6-sulphanylidene]carbamate] | 281 | 196
8 | 88 | COc1ccc(S(=O)(=O)C(C)C)cc1Nc1ccc2c(n1)N(C(C)C)[C@H](C)C(=O)N2C [Example 16, (3R)-4-Isopropyl-6-{[5-(isopropylsulphonyl)-2-methoxyphenyl]amino}-1,3-dimethyl-3,4-dihydropyrido[2,3-b]pyrazin-2(1H)-one] | 135 | 76
9 | 16 | COc1ccc(S(=O)(=O)C(C)C)cc1Nc1ccc2c(n1)N(C1CCN(C)CC1)[C@H](C)C(=O)N2C [Example 13, (3R)-6-{[5-(Isopropylsulphonyl)-2-methoxyphenyl]amino}-1,3-dimethyl-4-(1-methylpiperidin-4-yl)-3,4-dihydropyrido[2,3-b]pyrazin-2(1H)-one] | 15 | 11
10 | 23 | COc1ccc(S(=O)(=O)C2CC2)cc1Nc1ccc2c(n1)N(C1CCOCC1)[C@H](C)C(=O)N2C [Example 8, (3R)-6-{[5-(Cyclopropylsulphonyl)-2-methoxyphenyl]amino}-1,3-dimethyl-4-(tetrahydro-2H-pyran-4-yl)-3,4-dihydropyrido[2,3-b]pyrazin-2(1H)-one] | 23 | 18
11 | 228 | Cc1cc(Nc2ccc3c(n2)N(C2CCOCC2)[C@H](C)C(=O)N3C)ccn1 [Example 42, (3R)-1,3-Dimethyl-6-[(2-methylpyridin-4-yl)amino]-4-(tetrahydro-2H-pyran-4-yl)-3,4-dihydropyrido[2,3-b]pyrazin-2(1H)-one] | 436 | 445
12 | 28 | CC(C)S(=O)(=O)c1cccc(Nc2ccc3c(n2)N(C2CCOCC2)[C@H](C)C(=O)N3C)c1 [Example 7, (3R)-6-{[3-(Isopropylsulphonyl)phenyl]amino}-1,3-dimethyl-4-(tetrahydro-2H-pyran-4-yl)-3,4-dihydropyrido[2,3-b]pyrazin-2(1H)-one] | 75 | 51
13 | 152 | C[C@@H]1C(=O)N(C)c2ccc(Nc3cccc(S(C)(=O)=O)c3)nc2N1C1CCCCCC1 [Example 5, (3R)-4-Cycloheptyl-1,3-dimethyl-6-{[3-(methylsulphonyl)phenyl]amino}-3,4-dihydropyrido[2,3-b]pyrazin-2(1H)-one] | 560 | 371
14 | 75 | C[C@@H]1C(=O)N(C)c2ccc(Nc3cccc(S(C)(=O)=O)c3)nc2N1C1CCOCC1 [Example 1, (3R)-1,3-Dimethyl-6-{[3-(methylsulphonyl)phenyl]amino}-4-(tetrahydro-2H-pyran-4-yl)-3,4-dihydropyrido[2,3-b]pyrazin-2(1H)-one] | 204 | 180
15 | 94 | C[C@@H]1C(=O)N(C)c2ccc(Nc3cccc(S(C)(=O)=O)c3)nc2N1C1CCN(C)CC1 [Example 11, (3R)-1,3-Dimethyl-4-(1-methylpiperidin-4-yl)-6-{[3-(methylsulphonyl)phenyl]amino}-3,4-dihydropyrido[2,3-b]pyrazin-2(1H)-one] | 167 | 109
16 | 24 | C[C@@H]1C(=O)N(C)c2ccc(Nc3cccc(S(=O)(=O)C4CC4)c3)nc2N1C1CCOCC1 [Example 6, (3R)-6-{[3-(Cyclopropylsulphonyl)phenyl]amino}-1,3-dimethyl-4-(tetrahydro-2H-pyran-4-yl)-3,4-dihydropyrido[2,3-b]pyrazin-2(1H)-one] | 67 | 46
